Compound: CO[C@H]1C[C@@H]2CC[C@@H](C)[C@@](O)(O2)C(=O)C(=O)N2CCCC[C@H]2C(=O)O[C@H]([C@H](C)C[C@@H]2CC[C@@H](OCCO)[C@H](OC)C2)CC(=O)[C@H](C)/C=C(\C)[C@@H](O)[C@@H](OC)C(=O)[C@H](C)C[C@H](C)/C=C/C=C/C=C/1C [Everolimus] + CC(C)C[C@H](NC(=O)[C@H](Cc1ccccc1)NC(=O)c1cnccn1)B(O)O [Bortezomib] (partner 0.002 µM)
Assay: relative viability (nuclei count vs DMSO), 5 days (fraction); higher = more cells survive
In short: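 A single step with final 0.05% Triton X-100, 1% formaldehyde and 1 ug/ml Hoechst fixed the cells and stained nuclei 5 days after treatment. Lung cancer cell lines in 1536-well plates had been treated by pin tool the day after seeding with one drug alone or a fixed anchor-drug dose plus five library-drug doses (not always all listed) in √10 steps, and nuclei were counted on 4× images. Relative viability is the ratio of nuclei in treated wells to nuclei in vehicle wells, taken as the median of duplicate plates.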

| Cell Line | relative viability (first compound 0.01 µM) | relative viability (first compound 0.03162 µM) | relative viability (first compound 0.1 µM) | relative viability (first compound 0.3162 µM) | relative viability (first compound 1 µM) |
| --- | --- | --- | --- | --- | --- |
| H3255 | 0.518 | 0.458 | 0.359 | 0.394 | 0.44 |
| EPLC-272H | 0.573 | 0.589 | 0.517 | 0.638 | 0.558 |
| PC-3 [JPC-3] | 0.703 | 0.798 | 0.846 | 0.774 | 0.889 |
| EKVX | 0.636 | 0.721 | 0.631 | 0.558 | 0.6 |
| ChaGo-K-1 | 0.992 | 0.909 | 0.993 | 0.955 | 1.01 |
| NCI-H23 | 0.497 | 0.471 | 0.334 | 0.565 | 0.555 |
| EMC-BAC-2 | 0.731 | 0.69 | 0.645 | 0.588 | 0.616 |
| LOU-NH91 | 0.504 | 0.521 | 0.488 | 0.521 | 0.518 |
| LU99A | 0.647 | 0.599 | 0.543 | 0.568 | 0.614 |
| NCI-H460 | 0.827 | 0.982 | 0.672 | 0.881 | 1.08 |
| 201T | 1.01 | 1.01 | 0.956 | 0.927 | 0.953 |
| NCI-H2405 | 0.783 | 1.07 | 0.783 | 0.726 | 0.744 |
| NCI-H1703 | 0.183 | 0.178 | 0.212 | 0.213 | 0.186 |
| NCI-H1755 | 0.785 | 0.492 | 0.736 | 0.723 | 0.714 |
| NCI-H2087 | 0.699 | 0.957 | 0.625 | 0.75 | 0.837 |
| NCI-H2228 | 0.705 | 0.7 | 0.645 | 0.515 | 0.614 |
| NCI-H727 | 0.513 | 0.546 | 0.434 | 0.597 | 0.52 |
| NCI-H650 | 0.649 |  | 0.556 | 0.571 | 0.458 |
| NCI-H520 | 0.327 | 0.282 | 0.243 | 0.195 | 0.276 |
| EBC-1 | 0.344 | 0.406 | 0.314 | 0.424 | 0.255 |
| NCI-H661 | 0.592 | 0.572 | 0.518 | 0.421 | 0.386 |
| NCI-H1299 | 1.04 | 1.08 | 1.02 | 1.07 | 1.1 |
| Calu-6 | 0.91 | 0.9 | 0.901 | 0.937 | 0.78 |

| Cell Line | relative viability (first compound 0.01 µM) | relative viability (first compound 0.03162 µM) | relative viability (first compound 0.1 µM) | relative viability (first compound 0.3162 µM) | relative viability (first compound 1 µM) |
| --- | --- | --- | --- | --- | --- |
| NCI-H1993 | 0.571 | 0.521 | 0.598 | 0.567 | 0.64 |
| NCI-H838 | 0.42 | 0.48 | 0.377 | 0.41 | 0.597 |
| NCI-H1437 | 0.443 | 0.505 | 0.342 | 0.302 | 0.413 |
| LCLC-103H | 1.06 | 1.01 | 1.02 | 1.07 | 0.749 |
| NCI-H441 | 0.364 | 0.497 | 0.504 | 0.457 | 0.506 |
| SK-LU-1 | 0.674 | 0.742 | 0.909 | 0.618 | 0.769 |
| BEN | 0.326 | 0.367 | 0.299 | 0.333 | 0.328 |
| LC-2-ad | 1.05 | 1.1 | 0.997 | 0.943 | 1 |
| COR-L23 | 0.788 | 0.963 | 0.635 | 0.683 | 0.864 |
| NCI-H1650 | 0.196 | 0.186 | 0.179 | 0.243 | 0.199 |
| RERF-LC-KJ | 0.92 | 0.621 | 0.731 | 0.64 | 0.611 |
| NCI-H1915 | 0.917 | 0.864 | 0.977 | 0.79 | 0.882 |
| NCI-H596 | 0.813 | 0.716 | 0.658 | 0.612 | 0.589 |
| IA-LM | 0.209 | 0.255 | 0.305 | 0.439 | 0.405 |
| NCI-H2009 | 0.739 | 0.863 | 0.484 | 0.864 | 0.812 |
| NCI-H2126 | 0.736 | 0.668 | 0.66 | 0.714 | 0.738 |
| LXF-289 | 0.976 | 1.01 | 0.987 | 1.03 | 1.01 |
| NCI-H1563 | 0.665 | 0.724 | 0.762 | 0.715 | 0.704 |
| HCC-44 | 0.978 | 0.958 | 0.937 | 1.08 | 0.858 |
| PC-14 | 0.876 | 0.84 | 0.864 | 0.658 | 0.713 |
| HOP-62 | 0.493 | 0.662 | 0.399 | 0.489 | 0.574 |
| NCI-H1666 | 0.644 | 0.527 | 0.494 | 0.56 | 0.533 |
| NCI-H1355 | 0.611 | 0.567 | 0.593 | 0.592 | 0.564 |

| Cell Line | relative viability (first compound 0.01 µM) | relative viability (first compound 0.03162 µM) | relative viability (first compound 0.1 µM) | relative viability (first compound 0.3162 µM) | relative viability (first compound 1 µM) |
| --- | --- | --- | --- | --- | --- |
| HCC-827 | 0.995 | 1.19 | 1.07 | 1.16 | 1.09 |
| HARA | 1.07 | 1.14 | 0.904 | 1.11 | 1.01 |
| HCC-366 | 1.02 | 1.07 | 0.983 | 0.878 | 0.772 |
| NCI-H322M | 0.974 | 0.995 | 1.01 | 0.939 | 0.948 |
| NCI-H2347 | 0.749 | 0.658 | 0.752 | 0.602 | 0.528 |
| NCI-H1975 | 0.335 | 0.357 | 0.317 | 0.372 | 0.313 |
| UMC-11 | 0.325 | 0.34 | 0.301 | 0.356 | 0.362 |
| ABC-1 | 0.272 | 0.3 | 0.304 | 0.285 | 0.293 |
| A-427 | 0.783 | 0.891 | 0.778 | 0.742 | 0.768 |
| LCLC-97TM1 | 0.607 | 0.489 | 0.525 | 0.246 | 0.495 |
| HCC-15 | 1.01 | 1.09 | 0.968 | 1.06 | 1.07 |
| NCI-H647 | 0.635 | 0.59 | 0.601 | 0.635 | 0.693 |
| SW 1573 | 0.707 | 0.512 | 0.602 | 0.491 | 0.636 |
| NCI-H1651 | 0.766 | 0.66 | 0.8 | 0.731 | 0.564 |
| NCI-H1792 | 0.819 | 0.705 | 0.657 | 0.572 | 0.538 |
| NCI-H2023 | 0.667 | 0.527 | 0.534 | 0.615 | 0.335 |
| COR-L 105 | 0.593 | 0.476 | 0.445 | 0.565 | 0.584 |
| NCI-H1734 | 0.529 | 0.624 | 0.497 | 0.515 | 0.546 |
| NCI-H3122 | 1.05 | 1.16 | 1.06 | 1.08 | 1.01 |
| CAL-12T | 0.662 | 0.732 | 0.557 | 0.597 | 0.713 |
| HCC-78 | 0.428 | 0.375 | 0.384 | 0.371 | 0.314 |
| NCI-H2085 | 0.956 | 0.827 | 0.726 | 0.805 | 0.711 |

From the supplement of paper PMC10307832
